Test results: patent US20060141098A1, “Nutritional additive for animals” (Kemira Grow How AB, priority 2002, published 2006)

Legend:
pigs = details: phosphorus digestibility, Veevoedertabel 2000; cited from earlier work
[1] = Phosphorus solubility in water (Quimociac method); format: physicochemical; details: tricalcium phosphate experiment, absolute content
Method: (§1) At room temperature, 3 g sample and 300 ml distilled water have been agitated for 30 min. Subsequently the solution has been diluted to 500 ml and stirred. Then the solution has been filtered to remove the remaining solids. The Ca^2+ content of the solution was determined flame photometrically by means of ICP, and the amount of dissolved phosphorus was determined by the Quimociac method. These two methods are well known in the technical field.

[2] = Calcium solubility in water (ICP); format: physicochemical; details: tricalcium phosphate experiment, absolute content
Method: as §1

| % P water sol. [1] [%] | % Ca water sol. [2] [%] | Compound | Dig. Coeff. for pigs Average (pigs) |
| --- | --- | --- | --- |
| – | – | O=P([O-])([O-])O.[Ca+2] [Dicalcium phosphate, anhydrate] | 0.64 |
| – | – | Dicalcium phosphate, dihydrate | 0.70 |
| <0.1 | <0.1 | hydroxyl apatite [Hydroxyl apatite (ref)] | – |
